In patent publication US20230063449A1, “DRG-MDM2-5 FOR USE AS A NOVEL MOUSE DOUBLE MINUTE 2 (MDM2) INHIBITOR” (BAHCESEHIR UNIVERSITESI, priority 2020, published 2023):

Key:
[1] = biological target: MDM2 protein (Homo sapiens, UniProt Q00987); conditions: compared with natural p53 peptide; cited from earlier work
[2] = tested on: MDA-MB231 cell lines; test: MTT cell viability assay (IC50); type: cell-based; conditions: Homo sapiens, MDA-MB-231, single dose of treatment, 10^−9 to 10^−4 M, 570 nm absorbance (FIG. 1), read-out: half-maximal inhibitory concentration (IC50)
Method: (§1) HCT 116 colon cancer and MDA-MB231 breast cancer cell lines are used in cell culture experiments.
Cells were treated with high-glucose DMEM medium (Biosera) supplemented with 10% FBS (Gibco) and 1× penicillin/streptomycin (Multicell). The assay was designed to contain 10,000 cells for each well of 24-well cell culture plates before being treated with inhibitors.
Compound of formula I was dissolved with DMSO as 20 mM stock. 24 hours later, the solution was diluted in DMEM with 10% FBS and final concentration of vehicle DMSO was 0.5% at maximum. Therefore, the vehicle group included 0.5% DMSO concentration in experiments. Intensive cultivation of cells causes a decrease in proliferation capacity.
The MTT cell viability assay was used to detect values of half-maximal inhibitory concentration (IC50). Different concentrations of compound of formula I ranging between 10^−9 to 10^−4 M were tested on MDA-MB231 cell lines with single dose of treatment. 570 nm absorbance values were recorded and IC50 values were calculated by dose response—inhibition curves and nonlinear regression analysis on Graphpad Prism 8 software.

[3] = tested on: HCT 116 colon cancer and MDA-MB231 breast cancer cell lines; test: MTT cell proliferation inhibition analysis; type: cell-based; conditions: 100 μM; MTT at 12 h, 24 h, 48 h and 72 h; ANOVA, p<0.001 (FIG. 2)
Method: as §1
For proliferation inhibition analysis, cells were seeded in 24 well plates at 1×10^4 cells/well cells overnight without drug treatment. During the cell proliferation experiments, we performed five days of treatment in each cell line and repeated the experiments three times to check each experiment. No significant difference in cell viability was observed after the third day. Therefore, cells with different drug concentrations were treated for two days. After 48 hours, MTT was applied to the cells and incubated at 37° C. for 4 hours, formazan was solubilized with DMSO (Sigma-Aldrich, St. Louis, USA) and absorbance was measured at 570 nm.
Molecule concentration was 100 μM, the lower concentrations were not shown. Vehicle represents the groups treated with only %0.5 DMSO and Untreated represents no molecule treated group. Molecule responses were evaluated by cell viability which is obtained by spectrophotometric analysis of cells upon MTT treatment at 12 h, 24 h, 48 h and 72 h. […] Statistical significance in graphs was determined by comparing each treatment group with DMSO control using ANOVA testing and significance is considered as p<0.001 (FIG. 2).

MDM2 protein, sequence (Q00987 whole entry, species assumed): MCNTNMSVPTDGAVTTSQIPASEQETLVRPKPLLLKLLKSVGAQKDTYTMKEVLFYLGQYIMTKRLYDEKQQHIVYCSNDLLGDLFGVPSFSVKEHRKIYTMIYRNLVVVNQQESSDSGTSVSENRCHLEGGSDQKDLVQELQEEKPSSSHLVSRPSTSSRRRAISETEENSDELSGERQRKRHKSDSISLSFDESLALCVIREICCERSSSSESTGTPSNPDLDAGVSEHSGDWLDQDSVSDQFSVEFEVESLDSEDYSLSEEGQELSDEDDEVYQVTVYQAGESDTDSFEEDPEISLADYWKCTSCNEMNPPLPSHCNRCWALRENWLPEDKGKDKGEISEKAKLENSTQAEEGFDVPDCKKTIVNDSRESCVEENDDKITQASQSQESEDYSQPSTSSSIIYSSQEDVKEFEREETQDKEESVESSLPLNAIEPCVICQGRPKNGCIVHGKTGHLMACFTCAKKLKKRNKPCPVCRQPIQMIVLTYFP

IC50 [2] [µM] | Compound | binding affinity to MDM2 protein relative to a natural p53 peptide [1] [fold] | cell viability (MTT) compared to vehicle and untreated groups [3]
 | MI-319 | 500 | 
98 | O=C(CSCc1ccccc1)NC(CC1CNc2ccccc21)C(=O)O (stereo not drawn) [compound of formula I] |  | statistically significant difference compared to vehicle and untreated groups
